Values after ≈ are worked out from the molar mass of the structure shown. Read-outs that look alike come from different tables or passages of the source.
Assays:
[1] = parameters: method as in PMID 26921086; settings: cited from earlier work
[2] = In vitro cytotoxicity of PBMCs; type: cell-based; settings: male, human, peripheral blood mononuclear cells (PBMCs); 10 μM of belinostat
Method: The cutaneous T-cell lymphoma cell line (HuT-78) was purchased from the Bioresource Collection and Research Center (BCRC, Hsinchu, Taiwan). HuT-78 cells were incubated in 79% Iscove’s modified Dulbecco’s medium (IMDM) with 20% FBS and 1% liquid penicillin–streptomycin and kept in a humidified atmosphere containing 5% CO2 at 37 °C. HuT-78 cells were seeded on 96 well culture plates at a cell density of 1.5 × 10^5 cells per well. After overnight incubation, the medium was replaced with fresh medium containing belinostat free drug and belinostat-loaded liposomal formulations at final concentrations of 0.05, 0.1, 0.5, 1, 5 and 10 μM for 72 h. […] The absorbance was read at 450 nm by an enzyme-linked immunosorbent-assay reader (BioTek Epoch; Thermo Fisher Scientific, Waltham, MA, USA) to measure the quantity of surviving cells. IC50 was calculated using a four-parameter logistic function standard curve analysis of the dose response. The cell cytotoxicity was calculated using the following equation:(2) Cell viability %= ODsample−ODblank/ODcontrol−ODblank×100 % where OD denotes the optical density, ODcontrol represents 100% survival, and ODblank represents no cells.
Human peripheral blood mononuclear cells (PBMCs) were isolated from the peripheral blood from a healthy volunteer. […] After overnight incubation, the cytotoxicity assay was evaluated. […]

[3] = In vitro release by dialysis method with fitting to release models; type: physicochemical
Method: An in vitro release study was performed using a dialysis method. Dialysis bags with a molecular-weight cutoff of 6000–8000 Da (pore size 1.8 nm; Orange Scientific, Braine-l’Alleud, Belgium) were soaked with distilled deionized water for 12 h before the experiment. Dialysis bags containing SN38-loaded liposomes, or SN38 solution, were subsequently incubated in flasks containing 15 mL medium (phosphate buffered saline/ethanol 1:1 v/v) in a 37 °C water bath. At appropriate intervals, 500 μL aliquots of the medium were withdrawn for analysis and immediately replaced with an equal volume of fresh medium. Release kinetics were investigated using different models, including zero-order, first-order and Higuchi kinetics. Correlation coefficients and each release equation were calculated from the respective plots.

[4] = tested on: HuT-78 cells; test: Cell cytotoxicity (CCK-8) on HuT-78; type: cell-based; settings: Homo sapiens, HuT78; HuT-78, 72 h, CCK-8, n = 6
Method: The cutaneous T-cell lymphoma cell line (HuT-78) was purchased from the Bioresource Collection and Research Center (BCRC, Hsinchu, Taiwan). HuT-78 cells were incubated in 79% Iscove’s modified Dulbecco’s medium (IMDM) with 20% FBS and 1% liquid penicillin–streptomycin and kept in a humidified atmosphere containing 5% CO2 at 37 °C. HuT-78 cells were seeded on 96 well culture plates at a cell density of 1.5 × 10^5 cells per well. After overnight incubation, the medium was replaced with fresh medium containing belinostat free drug and belinostat-loaded liposomal formulations at final concentrations of 0.05, 0.1, 0.5, 1, 5 and 10 μM for 72 h. Cells were washed with PBS and reacted with 10 μL Cell Counting Kit-8 (CCK-8, Dojindo, Kumamoto, Japan) for 2 h. The absorbance was read at 450 nm by an enzyme-linked immunosorbent-assay reader (BioTek Epoch; Thermo Fisher Scientific, Waltham, MA, USA) to measure the quantity of surviving cells. IC50 was calculated using a four-parameter logistic function standard curve analysis of the dose response. The cell cytotoxicity was calculated using the following equation:(2) Cell viability %= ODsample−ODblank/ODcontrol−ODblank×100 % where OD denotes the optical density, ODcontrol represents 100% survival, and ODblank represents no cells.

[5] = cited from earlier work
[6] = pH 7.4; cited from earlier work
[7] = In vivo pharmacokinetics after subcutaneous administration; settings: Balb/c mice, single dose 0.333 mg/g
Method: The in vivo pharmacokinetic study was performed on healthy male BALB/c mice (weight: 16–20 g) obtained from the Laboratory Animal Center of the National Science Council, Taipei, Taiwan. All animal experiments were conducted in accordance with institutional guidelines and approved by the Animal Care and Use Committee of Kaohsiung Medical University, Kaohsiung, Taiwan (KMUIACUC-107146). All animals were starved overnight prior to the experiments.
BALB/c mice were anesthetized by halothane vapor with a vaporizer system. Mice were randomly divided into four groups, including the control group. Belinostat was dissolved in a mixture of 10% DMSO, 10% Cremophor EL, 80% water and a series of liposomal formulations (PC group, PS group, and PC/PS mixture group). It was then administered by subcutaneous injection with a dose of 0.33 mg/g. At time intervals of 5, 10 and 30 min and 1, 2, 3 and 4 h, 100 μL tail vein blood samples were collected in heparin-containing tubes (Vacutainer; BD, Franklin Lakes, NJ, USA) and immediately centrifuged at 3000× g for 10 min. The plasma was collected and stored at −20 °C. Mice were killed at the final time point and liver, spleen, lungs and kidneys were collected, washed with PBS and stored at −20 °C.
Plasma samples (40 μL) were mixed with 20 μL of internal standard solution (carbamazepine […]) and 1000 μL of methanol was added to induce protein precipitation. The mixture was centrifuged at 3000× g for 10 min and the supernatant was evaporated under vacuum for 2 h. The final dry residue was resuspended in methanol and analyzed by HPLC. Organs were homogenized in 1 mL PBS at 17,800 rpm for 30 s. Subsequently, following the same process, homogenized organs were mixed with internal standard solution and acetonitrile and analyzed by HPLC.
Correlation coefficients for the pharmacokinetic compartmental model were calculated and predicted using Phoenix WinNonlin V8.1 software (Certara, St. Louis, MO, USA). The area under the concentration–time curve (AUC0–∞) was calculated using the trapezoidal rule. Half-life (T½) and the clearance (Cl), volume of distribution (Vd), absorption rate (Ka) and elimination rate (Ke) were also calculated by software.

[8] = In vivo toxicity: complete blood count and liver function markers; settings: balb/c mice, subcutaneous, 0.333 mg/g, four hours after treatment
Method: BALB/c mice were administered with subcutaneous injections with doses of 0.33 mg/g of belinostat free drug and belinostat-loaded liposomal formulations. […] Blood was analyzed for number of erythrocytes, platelets (Plt) and total white blood cells using an automated blood analyzer (XT-1800i; Sysmex, Kobe, Japan). Hemoglobin, red blood cells and hepatic function were also analyzed. Reference values were obtained from Charles River Laboratory. ALT and AST were also evaluated.

- Time until release completely exhausted [3]: ≤ 4 h
- Initial burst release ([3]; within 2 h): 80%
- Cl ([7]; n = 3): 404.50 ± 138.35 L/h/kg
- Ka (absorption rate) ([7]; n = 3): 5.06 ± 2.00 h⁻¹
- Vd ([7]; n = 3): 1735.75 ± 414.86 L/kg
- AUC(0-inf) ([7]; male, mouse, plasma, sc, n = 3): 17500 ± 5990 ng·h/mL
- Cmax ([7]; male, mouse, plasma, sc, n = 3): 3390 ± 740 ng/mL
- Tmax ([7]; male, mouse, plasma, sc, n = 3): 0.69 ± 0.31 h
- half-life ([7]; male, mouse, plasma, sc, n = 3): 3.29 ± 1.84 h
- k el ([7]; male, mouse, plasma, sc, n = 3, read-out: Ke (elimination rate) (converted)): 6.94e-05 s⁻¹
SMILES: O=C(/C=C/c1cccc(S(=O)(=O)Nc2ccccc2)c1)NO [belinostat, Belinostat]
- half-life [1]: 1.1 h
- viability at 72 h, 10 µM [2]: 20%
- IC50 [4]: 1800 ± 160 nM
- Patients with low platelet count [5]: 10–29%
- Patients with low red blood cell counts ([5]; intravenous (IV) infusion over 30 min): more than 30%
- Solubility [6]: 80 µg/mL (≈ 251 µM)
- ALT [8]: 125 ± 4.57 U/L
- Gra [8]: 13.47 ± 3.21%
- Hb [8]: 13.63 ± 2.16 g/dL
- Hct [8]: 39.58 ± 3.80%
- Lym [8]: 78.21 ± 6.56%
- Mon [8]: 10.95 ± 2.52%
- Plt count [8]: 230 ± 45.72 10^9/L
- RBC count [8]: 9.29 ± 1.28 10^12/L
- ST [8]: 290 ± 34.48 U/L
- WBC count [8]: 3.42 ± 0.67 10^9/L
